# Laboratory results reported in article PMC6347521 (Current protocols in toxicology, 2018).
# Like-named read-outs stand apart in the source and are kept apart here.
# Tests used:
# 2D = details: read-out: IC50 2D (literature review), cited from earlier work
# [1] = system: Hep3B human hepatoma cell line; test: cells; assay type: cell-based; details: read-out: IC50 Calcein AM
# [2] = system: Hep3B human hepatoma cell line; test: cells; assay type: cell-based; details: read-out: IC50 TMRM
# [3] = system: Hep3B human hepatoma cell line; test: cells; assay type: cell-based; details: read-out: IC50 Hoechst
# [4] = system: Hep3B human hepatoma cell line; test: cells; assay type: cell-based; details: read-out: IC50 mBCl
# rat = details: ref not given; cited from earlier work
# [5] = 2D cell culture, ref literature review
Structure (SMILES),IC50 (2D) [µM],"IC50 ([1]; Homo sapiens, Hep3B, 48 h) [µM]","IC50 ([2]; Homo sapiens, Hep3B, 48 h) [µM]","IC50 ([3]; Homo sapiens, Hep3B, 48 h) [µM]","IC50 ([4]; Homo sapiens, Hep3B, 48 h) [µM]",LD50 mg/kg (rat oral) (rat) [mg/kg],IC50 (2D; [5]) [µM],IC50 [1] [µM],IC50 [2] [µM],IC50 [3] [µM],IC50 [4] [µM]
CC(=O)Nc1ccc(O)cc1 [Acetaminophen],29800,> 2100,> 2100,> 2100,> 2100,,,,,,
CC[C@H](C)C(=O)O[C@H]1C[C@@H](C)C=C2C=C[C@H](C)[C@H](CC[C@@H]3C[C@@H](O)CC(=O)O3)[C@H]21 [Lovastatin],20 ± 3.7,150,152 ± 6.7,188 ± 17.7,195 ± 5,5000,,,,,
CC1=CC(=O)c2ccccc2C1=O [Menadione],,11 ± 3.8,11.5 ± 2.5,20 ± 1,15 ± 2.3,,13.5 ± 3.6,,,,
C=C(C)[C@H]1Cc2c(ccc3c2O[C@@H]2COc4cc(OC)c(OC)cc4[C@@H]2C3=O)O1 [Rotenone],,8 ± 6,0.6 ± 0.3,3,1.7 ± 0.7,30,1.7 ± 1.2,,,,
O=C([O-])CC(O)(CC(=O)[O-])C(=O)[O-].[Na+].[Na+].[Na+] [Sodium citrate],> 1400,,,,,,,> 1400,> 1400,> 1400,> 1400
CC/C(=C(\c1ccccc1)c1ccc(OCCN(C)C)cc1)c1ccccc1 [Tamoxifen],,,,,,4100,,,,,
